Measured values: ChEMBL document CHEMBL1121377, “Synthesis and biological activities of chloroethylurea, methylurea, and nitrosourea analogues of N-deacetylmethylthiocolchicine” (1980)

Legend:
Type in all cases: functional
[1] = In vitro inhibitory activity against Sarcoma 180 cells; settings: Mus musculus, read-out: ED50 (the source's name)
Human alphaherpesvirus 1 [2] = assay: Percent inhibition of herpes simplex type-1 virus at the concentration of 10 uM
L1210 = assay: In vitro inhibitory activity against murine leukemia L1210 cells; settings: Mus musculus, read-out: ED50 (the source's name)
Human alphaherpesvirus 1 [3] = assay: Percent inhibition of herpes simplex type-1 virus at the concentration of 50 uM
Human alphaherpesvirus 1 [4] = assay: Percent inhibition of herpes simplex type-1 virus at the concentration of 1 uM
Human alphaherpesvirus 1 [5] = assay: Percent inhibition of herpes simplex type-1 virus at the concentration of 175 uM
Human alphaherpesvirus 1 [6] = assay: Percent inhibition of herpes simplex type-1 virus at the concentration of 20 uM

EC50 [1] [nM] | EC50 (L1210) [nM] | SMILES | further results
26 | 18 | COc1cc2c(c(OC)c1OC)-c1ccc(SC)c(=O)cc1C(NC(=O)N(C)N=O)CC2 (centres undefined) | inhibition at 10 µM (Human alphaherpesvirus 1 [2]): 86%
30 | 16 | COc1cc2c(c(OC)c1OC)-c1ccc(SC)c(=O)cc1C(NC(=O)NCCCl)CC2 (centres undefined) | inhibition at 20 µM (Human alphaherpesvirus 1 [6]): 72%

More lines, now with the values behind:

SMILES | EC50 [1] [nM] | EC50 (L1210) [nM] | further results
O=c1[nH]c(=O)n([C@H]2C[C@H](O)[C@@H](CO)O2)cc1I [IDOXURIDINE] | – | – | inhibition at 50 µM (Human alphaherpesvirus 1 [3]): 99.3%
COc1cc2c(c(OC)c1OC)-c1ccc(SC)c(=O)cc1C(NC(=O)N(CCCl)N=O)CC2 (centres undefined) | 27 | 12 | inhibition at 1 µM (Human alphaherpesvirus 1 [4]): 76%
CNC(=O)NC1CCc2cc(OC)c(OC)c(OC)c2-c2ccc(SC)c(=O)cc21 (centres undefined) | 29 | 33 | inhibition at 175 µM (Human alphaherpesvirus 1 [5]): 85%
O=NN(CCCl)C(=O)NCCCl [CARMUSTINE] | – | 4000 | –
